Patent US20250186397A1, “COMPOUNDS FOR THE USE IN THE TREATMENT OF MOOD DISORDERS” (Kanna Health Ltd, priority 2022, published 2025)
Like-named read-outs stand apart in the source and are kept apart here.

Key:
[1] = test system: C57B6J mice; experiment: Elevated plus maze after chronic mild unpredictable stress; type: in vivo
Description: (§1) FIG. 8. Effect of mesembrenol (0.3, 1 and 3 mg/kg, i.p.) administered 30 minutes pre-test on chronic mild unpredictable stress induced anxiety phenotype in the elevated plus maze. Data represents (A) latency to open arm entry (sec), (B) number of open arm entries (a.u.) and (C) total time in open arms of the apparatus during the ten minute procedure. Analysis by one-way ANOVA followed by multiple comparisons with Dunn's and Sidak's correction; *-**** P<0.05-0.0001 vs stress vehicle (n=8).
as §1, with “9.” for “8.”, “mesembranol” for “mesembrenol”
(§2) C57BI6J mice, will be housed in groups of 4, will be exposed to a variety of mild stressors for a period of four weeks.
(§3) The stressors will include wet bedding, 40° cage tilt, introduction of intruder mouse from different experimental cohort, food deprivation, water deprivation, overnight illumination, and presence of soiled rat bedding as an aversive odour. These stressors are randomly scheduled over each weekly period and repeated for the duration of the experiment. Each stressor is applied for a period of 8-16 hours.
(§4) A cohort of depression-like phenotype in adult male C57B6J mice is produced by employing a four-week mild unpredictable stress protocol.
Finally, the effect of the test compounds on chronic unpredictable mild stress anxiogenic phenotype in the elevated plus-maze to determine anxiolytic-like activity.
The apparatus consists of 4 raised flat runways extending from a central platform raised 1 m above the floor of a 2 m wide water maze (prevents escape in the rare event of an animal falling from the apparatus). Two arms have enclosed sides while the others are open.
The mouse version of the apparatus employs maze arms of 30 cm length and 6 cm width, where the enclosed arms have walls 30 cm high. The room is lit with low level indirect lighting.
Animals are allowed to freely explore the apparatus over a 10 minute trial with remote video analysis capturing the pattern of animal movement. The time animals spend exploring the open arms of the maze during the trial is inversely related to the level of stress/anxiety felt by the animal.
Endpoints recorded are the latency (sec) to enter open arms of the maze, total number of open arm entries (a.u.) and total time (sec) spent in the open arms of the plus-maze.

[2] = biological target: human recombinant PDE-4D2 (Homo sapiens, UniProt Q08499); experiment: PDE4-D2 assay (SPA); type: biochemical
Sequence of human recombinant PDE-4D2 (Q08499 303-809 limits assumed): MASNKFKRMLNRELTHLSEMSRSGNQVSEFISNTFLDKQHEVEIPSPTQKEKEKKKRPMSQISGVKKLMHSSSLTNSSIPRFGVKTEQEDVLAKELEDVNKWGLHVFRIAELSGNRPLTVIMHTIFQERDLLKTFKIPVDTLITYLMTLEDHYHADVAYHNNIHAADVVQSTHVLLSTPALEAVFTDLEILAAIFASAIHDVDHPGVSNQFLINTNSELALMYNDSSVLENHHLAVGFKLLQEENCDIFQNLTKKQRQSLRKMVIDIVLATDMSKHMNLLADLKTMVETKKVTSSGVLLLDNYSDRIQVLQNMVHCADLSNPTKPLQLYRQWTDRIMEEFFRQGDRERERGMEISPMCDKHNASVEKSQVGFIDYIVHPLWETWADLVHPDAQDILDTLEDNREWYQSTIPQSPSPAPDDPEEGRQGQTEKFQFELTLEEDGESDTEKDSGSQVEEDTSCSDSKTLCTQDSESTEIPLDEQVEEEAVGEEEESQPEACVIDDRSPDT
Description: (§5) Test compounds (conc range), reference compound or vehicle control were added to assay buffer containing (in mM); Tris/HCl, pH 7.4 (40), MgCl2 (8) and EGTA/NaOH (1.7), containing 450 nM cAMP (450 nM) and 0.25 μCi (PDE-4B1) or 0.0125 μCi (PDE-4D2) [^3H] CAMP. 20 mins after addition of human recombinant PDE-4B1 (1.2 IEU) or PDE-4D2 (1.5 IEU), SPA beads were added and incubated at 22° C. for a further 30 mins. [^3H]5′AMP was quantified by a standard scintillation counting method.
(§6) Data were expressed as the mean of two technical replicates for each data point, and percent inhibition calculated relative to maximum inhibition observed in the presence of the reference comparator rolipram for PDE-4 assays, and imipramine for serotonin assays.

[3] = test system: C57B6J mice; experiment: Forced swim test after chronic mild unpredictable stress; type: in vivo; settings: 3 mg/kg i.p., 30 minutes pre-test, relative to vehicle
Description: (§7) FIG. 6. Effect of mesembrenol (0.3, 1 and 3 mg/kg, i.p.) administered 30 minutes pre-test on chronic mild unpredictable stress induced depression phenotype in the forced swim test. Data represents (A) latency to immobility (sec) and (B) total time immobile in the four minute evaluation phase of the procedure. Analysis by one-way ANOVA followed by multiple comparisons with Sidak's and Dunn's correction; **-****P<0.01-0.0001 vs stress vehicle (n=8).
as §7, with “7.” for “6.”, “mesembranol” for “mesembrenol”, “Sidak's” for “Sidak's and Dunn's”, “***-****P<0.001-0.0001” for “**-****P<0.01-0.0001”
as §2, §3, §4
The effect of treatment with the test compounds on chronic mild stress induced immobility in the forced swim test was tested to establish antidepressant-like activity.
Following the 24 hour sucrose preference test, animals are treated again with the test compound, imipramine or vehicle. Animals are individually placed in clear Plexiglas cylinders (25 cm high; 10 cm in diameter) which are filled to a depth of 15 cm with water at 22-25° C.
Testing is conducted under low level red light and behaviour recorded over a 6 minute period using a video camera placed above the cylinder. During the test the animals are placed in the cylinder and allowed to habituate for two minutes before the cumulative duration of time spent immobile is determined over the following 4 minutes. Latency to immobility is recorded.
Movements necessary for the animal to maintain its head above water will not be scored as activity.

[4] = in vivo; settings: male, C57BI/6J, mouse, ip, 10 mg/kg
Description: Groups of male C57BI/6J mice received a single administration of test compound (10 mg/kg; i.p.) in methylcellulose (0.5% w/v).
Three mice from each dose group were subject to cardiac puncture under general anaesthesia at 0.25, 0.50, 1.00, 2.00, 4.00, 7.00 and 24.0 hours post-dose and plasma samples generated for application of standard LC-MS/MS bioanalytical methods.
Quantitation of compound concentration was derived from reference calibration data. Pharmacokinetic data were derived from serial plasma concentrations.

[5] = test system: C57B6J mice; experiment: Female urine sniffing test after chronic mild unpredictable stress; type: in vivo; settings: 60 minutes pre-test; for time sniffing female estrous urine: relative to vehicle
Description: (§8) FIG. 2. Effect of mesembrenol (0.3, 1 and 3 mg/kg, i.p.) administered 60 minutes pre-test on preference to examine the female estrous urine treat following chronic mild unpredictable stress. Data represents total time (sec) engaged in sniffing and investigating the urine soaked cotton tip during a 3 minute trial period. Analysis by one-way ANOVA followed by multiple comparisons with Sidak's correction; **-****P<0.01-0.0001 vs stress vehicle (n=8).
as §8, with “3.” for “2.”, “mesembranol” for “mesembrenol”
as §2, §3, §4
Following two weeks treatment with imipramine, or acute treatment with vehicle or the test compounds (mesembrenol and mesembranol), the reversal of stress induced depression-like behaviour was determined using a measure of anhedonia, female urine sniffing preference.
The test compounds were evaluated at three doses with comparison made to vehicle control, no stress control and the reference control imipramine (n=8). […]
Animals are subsequently transferred to individual cages and exposed for a 3 minute period to a cotton tipped applicator which is dipped in water and attached to the side of the cage. The time each animal spends sniffing the water-impregnated cotton tipped applicator is scored manually by the observer who is blinded to group treatments.
Following a 45 minute interval in the absence of a cotton tipped applicator, an applicator dipped in the urine of a female mice in oestrus is presented and the time spent sniffing the urine-impregnated cotton bud is recorded over a 3 minute period. […]
Testing is conducted under low level red light and behaviour is scored remotely via a video camera placed above the cage.

[6] = test system: zebrafish; settings: isolated alkaloids, Maphanga et al., 2022; cited from earlier work
[7] = biological target: human recombinant PDE-4B1 (Homo sapiens, UniProt Q07343); experiment: PDE4-B1 assay (SPA); type: biochemical; settings: human recombinant enzyme, 450 nM cAMP
Sequence of human recombinant PDE-4B1 (Q07343 whole entry): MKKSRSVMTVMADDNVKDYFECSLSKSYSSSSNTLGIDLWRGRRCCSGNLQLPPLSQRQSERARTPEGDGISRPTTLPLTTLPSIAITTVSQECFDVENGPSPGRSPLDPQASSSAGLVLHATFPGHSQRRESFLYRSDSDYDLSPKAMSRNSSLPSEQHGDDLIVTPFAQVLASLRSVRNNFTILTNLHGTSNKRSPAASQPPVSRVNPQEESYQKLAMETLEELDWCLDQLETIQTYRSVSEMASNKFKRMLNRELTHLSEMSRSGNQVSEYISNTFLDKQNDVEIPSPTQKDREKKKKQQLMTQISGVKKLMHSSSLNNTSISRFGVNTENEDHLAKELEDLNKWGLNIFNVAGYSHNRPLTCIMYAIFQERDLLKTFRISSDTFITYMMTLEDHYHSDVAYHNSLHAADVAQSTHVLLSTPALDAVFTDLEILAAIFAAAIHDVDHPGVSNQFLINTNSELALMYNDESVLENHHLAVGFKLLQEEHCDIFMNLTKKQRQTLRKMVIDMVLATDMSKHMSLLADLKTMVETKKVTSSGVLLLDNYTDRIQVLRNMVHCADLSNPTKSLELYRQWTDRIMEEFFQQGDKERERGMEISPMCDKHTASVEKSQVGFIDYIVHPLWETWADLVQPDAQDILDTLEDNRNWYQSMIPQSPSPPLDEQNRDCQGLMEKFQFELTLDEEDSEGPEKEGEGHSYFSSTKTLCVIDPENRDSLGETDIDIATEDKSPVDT
Description: as §5, §6

[8] = biological target: T1, human serotonin transporter (Homo sapiens, UniProt P31645); experiment: SERT assay, [3H] serotonin uptake in transfected CHO cells; type: cell-based; settings: CHO cells with human serotonin transporter, 180 min
T1 construct: expressed in transfected cells; host or cells: CHO cells
T1 sequence (P31645 whole entry): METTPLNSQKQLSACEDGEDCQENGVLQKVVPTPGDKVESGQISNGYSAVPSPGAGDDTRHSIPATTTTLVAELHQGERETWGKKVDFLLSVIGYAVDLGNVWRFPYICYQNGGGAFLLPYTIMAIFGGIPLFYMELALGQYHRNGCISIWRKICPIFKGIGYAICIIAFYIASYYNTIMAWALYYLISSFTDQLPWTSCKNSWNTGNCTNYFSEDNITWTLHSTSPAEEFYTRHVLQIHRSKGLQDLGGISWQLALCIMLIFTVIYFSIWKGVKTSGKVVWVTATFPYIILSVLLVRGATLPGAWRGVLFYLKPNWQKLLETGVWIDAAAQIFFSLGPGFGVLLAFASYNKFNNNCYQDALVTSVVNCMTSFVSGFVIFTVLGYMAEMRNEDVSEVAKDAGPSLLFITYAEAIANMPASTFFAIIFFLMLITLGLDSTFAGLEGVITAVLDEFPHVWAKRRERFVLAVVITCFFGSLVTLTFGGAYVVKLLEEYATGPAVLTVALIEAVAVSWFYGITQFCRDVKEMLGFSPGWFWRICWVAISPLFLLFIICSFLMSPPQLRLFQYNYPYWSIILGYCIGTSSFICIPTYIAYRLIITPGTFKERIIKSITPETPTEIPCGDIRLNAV
Description: Test compounds (conc range), reference compound or vehicle control were incubated for 180 min at room temperature with CHO cells stably transfected with the human serotonin transporter (5×10^3 cells/well) with 0.15 μM [3H] serotonin in the presence or absence of the test or reference compound in buffer containing (in mM); Tris/HCl (pH 7.4) (5), HEPES/Tris (7.5), NaCl (120), KCl (5.4), CaCl2) (1.2), MgSO4 (1.2), Glucose (5) and ascorbic acid (1). Following incubation, [3H] serotonin uptake was quantified by a standard scintillation counting method.
as §6

[9] = test system: C57B6J mice; experiment: Sucrose preference test after chronic mild unpredictable stress; type: in vivo; settings: relative to stress vehicle; for sucrose preference: all time points tested
Description: (§9) FIG. 4. Effect of mesembrenol (0.3, 1 and 3 mg/kg, i.p.) administered 30 minutes pre-test on sucrose preference following chronic mild unpredictable stress. Data represents cumulative % preference for sucrose solution over water at the 4, 8, 12 and 24 hour timepoints of the test period. Analysis by repeat measures two-way ANOVA followed by multiple comparisons with Dunnet's correction; *-****P<0.05-0.0001 vs stress vehicle (n=8).
as §9, with “5.” for “4.”, “mesembranol” for “mesembrenol”, “by” for “by repeat measures”, “Sidak's” for “Dunnet's”, “*-*P<0.001-0.0001” for “*-****P<0.05-0.0001”
as §2, §3, §4
An additional readout was used to assess antidepressant-like activity of the test compounds using a further measure of anhedonia, the sucrose preference test.
During this test, mice are housed individually and provided, for 24 hours, a free choice between two bottles, one with 1% sucrose solution and another with filtered tap water.
To prevent possible effects of side preference in drinking behaviour, the position of the bottles is swapped after 12 hours. The consumption of water and sucrose solution is estimated simultaneously in control and experimental groups by weighing the bottles. The sucrose intake is calculated as an amount of consumed sucrose in mg per gram body weight. The preference for sucrose is calculated as a percentage of consumed sucrose solution of the total amount of liquid drunk.
A decrease of sucrose preference below 65%, is taken as the criterion for anhedonia. […] In addition, mice with a lower than 65% sucrose preference in other models display features of anhedonia and depression, such as an increased threshold of intracranial self-stimulation and sleep disturbances.
The effect of 2 weeks treatment with imipramine or the acute effect of the test compound or vehicle is determined over this 24 hour period.

[10] = 3 mg/kg i.p., 30 minutes pre-test, relative to vehicle
[11] = 3 mg/kg i.p., mesembrenol p<0.001, mesembranol p<0.01

In the case of `COc1ccc(C23CCC(O)CC2N(C)CC3)cc1OC` (centres unmarked) [Mesembranol, 3a-(3,4-dimethoxyphenyl)-1-methyl-3,4,5,6,7,7a-hexahydro-2H-indol-6-ol], the “number of open arm entries” value [1, 10] is reported as “significant increase”, the “time spent in the open arms” value [1, 10] is reported as “significant increase” and the IC50 [2] is reported as 9.84 µM. The immobility time [3] was “significant reduction”, the latency to immobility [3] was “no changes” and the AUC(0-inf) [4] was 649 ng·h/mL. It also gave a Cmax [4] of 834 ng/mL, a Tmax [4] of 18 min and a half-life [4] of 21.8 min. For the same compound, the “time sniffing female estrous urine” value [5, 11] was “significant increase”, the “effect in zebrafish model of anxiety” value [6] was “anxiolytic-like effect” and the IC50 [7] was 8.41 µM. The IC50 [8] was 0.143 µM and the sucrose preference ([9]; 3 mg/kg i.p.) was “statistically significant increase”.
In the case of `COc1ccc(C23C=CC(O)CC2N(C)CC3)cc1OC` (centres unmarked) [Mesembrenol], the “time spent in the open arms” value ([1]; 1 mg/kg i.p., 30 minutes pre-test, relative to vehicle) is reported as “significant increase”, the “time spent in the open arms” value [1, 10] is reported as “significant increase” and the “number of open arm entries” value ([1]; 0.3, 1 and 3 mg/kg i.p., versus the vehicle group) is reported as “no change”. For the same compound, the IC50 [2] was 3.91 µM, the immobility time [3] was “significant reduction” and the latency to immobility [3] was “significant increase”. The AUC(0-inf) [4] was 352 ng·h/mL, the Cmax [4] was 503 ng/mL and the Tmax [4] was 16 min. For the same compound, the half-life [4] was 26.3 min, the “time sniffing female estrous urine” value ([5]; 1 mg/kg i.p., mesembrenol p<0.01) was “significant increase” and the “time sniffing female estrous urine” value [5, 11] was “significant increase”. For the same compound, the “time sniffing female estrous urine, dose response” value ([5]; 0.3, 1 and 3 mg/kg i.p., relative to stress vehicle) was “dose dependent increase”, the “effect in zebrafish model of anxiety” value [6] was “anxiolytic-like effect” and the IC50 [7] was 27.6 µM. The IC50 [8] was 0.462 µM, the sucrose preference ([9]; 1 mg/kg i.p.) was “significant increase” and the sucrose preference ([9]; 3 mg/kg i.p.) was “significant increase”. For the same compound, the “sucrose preference, dose response” value ([9]; 0.3, 1 and 3 mg/kg i.p., 30 minutes pre-test, all time points (4, 8, 12, 24 hour)) was “dose dependent increase”.
In the case of `COc1ccc([C@@]23CCC(=O)C[C@@H]2N(C)CC3)cc1OC` [mesembrine], the “effect in zebrafish model of anxiety” value [6] is given as “anxiolytic-like effect”.
For `COc1ccc(C2CNC(=O)C2)cc1OC1CCCC1` (centres unmarked) [Rolipram, reference compound], the IC50 [8] was 0.0232 µM.
Work on `CN(C)CCCN1c2ccccc2CCc2ccccc21` [Imipramine, reference compound] yielded an IC50 ([2]; human recombinant enzyme, 450 nM cAMP, read-out: IC50 PDE-4D2) of 0.144 to 0.3 µM and an IC50 [7] of 1.6 µM.
For `COc1ccc([C@@]23C=CC(=O)C[C@@H]2N(C)CC3)cc1OC` [mesembrenone], the “effect in zebrafish model of anxiety” value [6] is given as “anxiolytic-like effect”.
